ChEMBL document CHEMBL4765261, “Design, synthesis, and biological evaluation of heterotetracyclic quinolinone derivatives as anticancer agents targeting topoisomerases” (Eur J Med Chem, 2020)
Calls of active or inactive are those of the source. The calls are words filed in the database; no cut-off is given here.

Columns and labels:
[1] = Cytotoxicity against human MDA-MB-231 cells assessed as reduction in cell viability at 10 uM after 72 hrs by MTT assay relative to control; format: cell-based; conditions: read-out: INH
MDA-MB-468 = assay: Anticancer activity against human MDA-MB-468 cells assessed as inhibition of cell proliferation measured after 72 hrs by MTT assay; format: functional, cell-based; conditions: MDA-MB-468, 72 h
MDA-MB-231 [2] = assay: Anticancer activity against human MDA-MB-231 cells assessed as inhibition of cell proliferation measured after 72 hrs by MTT assay; format: functional, cell-based; conditions: MDA-MB-231, 72 h
[3] = molecular target: T1, DNA topoisomerase 1 (Homo sapiens) (UniProt P11387); assay: Inhibition of human recombinant topoisomerase 1 expressed in baculovirus-infected insect cells assessed as inhibition of DNA relaxation at 3 uM incubated for 30 mins by ethidium bromide staining based agarose gel electrophoresis method
T1 sequence (whole entry): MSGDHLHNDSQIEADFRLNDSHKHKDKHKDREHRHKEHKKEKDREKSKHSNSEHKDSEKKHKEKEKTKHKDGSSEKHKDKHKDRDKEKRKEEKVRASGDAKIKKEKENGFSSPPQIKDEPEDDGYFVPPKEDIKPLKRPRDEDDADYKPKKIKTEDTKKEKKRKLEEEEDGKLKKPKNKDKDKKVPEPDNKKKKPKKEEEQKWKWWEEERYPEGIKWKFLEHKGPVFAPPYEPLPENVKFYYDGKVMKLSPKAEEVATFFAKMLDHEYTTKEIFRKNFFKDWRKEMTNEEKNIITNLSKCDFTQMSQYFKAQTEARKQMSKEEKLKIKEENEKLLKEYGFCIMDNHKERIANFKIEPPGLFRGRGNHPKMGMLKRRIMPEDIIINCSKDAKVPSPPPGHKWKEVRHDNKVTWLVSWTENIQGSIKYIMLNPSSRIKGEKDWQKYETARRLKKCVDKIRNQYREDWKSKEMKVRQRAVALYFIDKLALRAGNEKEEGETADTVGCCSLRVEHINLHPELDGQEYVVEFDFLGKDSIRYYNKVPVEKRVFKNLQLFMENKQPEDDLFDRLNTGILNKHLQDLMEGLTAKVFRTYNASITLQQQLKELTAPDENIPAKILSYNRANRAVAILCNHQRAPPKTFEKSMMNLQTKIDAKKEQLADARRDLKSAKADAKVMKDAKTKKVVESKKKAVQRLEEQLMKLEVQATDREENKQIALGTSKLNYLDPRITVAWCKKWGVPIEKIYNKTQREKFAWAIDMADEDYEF

NCI-H1299 = assay: Anticancer activity against human H1299 cells assessed as inhibition of cell proliferation measured after 72 hrs by MTT assay; format: functional, cell-based; conditions: NCI-H1299, 72 h
[4] = molecular target: DNA topoisomerase 2-alpha (Homo sapiens) (UniProt P11388); assay: Inhibition of human recombinant topoisomerase 2alpha expressed in baculovirus-infected insect cells assessed as inhibition of DNA relaxation at 3 uM incubated for 45 mins by ethidium bromide staining based agarose gel electrophoresis method
MCF7 = assay: Anticancer activity against human MCF7 cells assessed as inhibition of cell proliferation measured after 72 hrs by MTT assay; format: functional, cell-based; conditions: MCF7, 72 h
[5] = molecular target: T1, DNA topoisomerase 1 (Homo sapiens); assay: Inhibition of human recombinant topoisomerase 1 expressed in baculovirus-infected insect cells assessed as inhibition of DNA relaxation at 1 uM incubated for 30 mins by ethidium bromide staining based agarose gel electrophoresis method
HCT-116 = assay: Anticancer activity against human HCT-116 cells assessed as inhibition of cell proliferation measured after 72 hrs by MTT assay; format: functional, cell-based; conditions: HCT-116, 72 h
[6] = molecular target: DNA topoisomerase 2-alpha (Homo sapiens) (UniProt P11388); assay: Inhibition of human recombinant topoisomerase 2alpha expressed in baculovirus-infected insect cells assessed as inhibition of DNA relaxation at 1 uM incubated for 45 mins by ethidium bromide staining based agarose gel electrophoresis method
[7] = molecular target: T1, DNA topoisomerase 1 (Homo sapiens); assay: Inhibition of human recombinant topoisomerase 1 expressed in baculovirus-infected insect cells assessed as inhibition of DNA relaxation at 10 uM incubated for 30 mins by ethidium bromide staining based agarose gel electrophoresis method
MDA-MB-231 [8] = assay: Cell cycle arrest in human MDA-MB-231 cells assessed as accumulation at sub-G1 phase at 10 uM after 24 hrs by propidium iodide staining-based flow cytometric analysis (reference value: 0.72%); format: functional
MDA-MB-231 [9] = assay: Cell cycle arrest in human MDA-MB-231 cells assessed as accumulation at sub-G1 phase at 20 uM after 24 hrs by propidium iodide staining based flow cytometric analysis (reference value: 0.72%); format: functional
[10] = molecular target: T1, DNA topoisomerase 1 (Homo sapiens); assay: Poison activity at human recombinant topoisomerase I assessed as accumulation of supercoiled DNA by measuring restricted DNA mobility at 30 uM measured after 30 mins by ethidium bromide staining based agarose gel electrophoresis
[11] = molecular target: T1, DNA topoisomerase 1 (Homo sapiens); assay: Poison activity at human recombinant topoisomerase I in human MDA-MB-231 cells assessed as increase in chromatin incubated for 30 mins by Western blot analysis; format: cell-based
MCF-10A [12] = assay: Induction of cell cycle arrest in human MCF-10A cells assessed as increase in accumulation of cells at sub-G1 phase at 2.5 uM incubated for 24 hrs by propidium iodide based flow cytometry analysis
MDA-MB-231 [13] = assay: Induction of DNA damage in human MDA-MB-231 cells assessed as phosphorylation of Ser 139 of histone H2AX measured after 24 hrs by western blotting analysis; format: functional, cell-based
MDA-MB-231 [14] = assay: Cell cycle arrest in human MDA-MB-231 assessed as increase accumulation at G2/M phase incubated for 12 hrs by propidium iodide staining based flow cytometric analysis relative to control; format: functional
MDA-MB-231 [15] = assay: Induction of apoptosis in human MDA-MB-231 cells assessed as increase in cleaved caspase-8 level incubated for 24 hrs by Western blot analysis; format: functional, cell-based
[16] = molecular target: DNA topoisomerase 2-alpha (Homo sapiens) (UniProt P11388); assay: Poison activity at human recombinant topoisomerase II alpha in human MDA-MB-231 cells assessed as increase in chromatin incubated for 30 mins by Western blot analysis; format: cell-based
MDA-MB-231 [17] = assay: Antiproliferative activity against human […] at 2.5 uM after 72 hrs by MTT assay relative to control; format: functional, cell-based
MDA-MB-231 [18] = assay: Induction of cell cycle arrest in human […] assessed as increase in accumulation of cells at sub-G1 phase at 2.5 uM incubated for 24 hrs by propidium iodide based flow cytometry analysis; format: functional
MDA-MB-231 [19] = assay: Cell cycle arrest in human MDA-MB-231 cells assessed as accumulation at sub-G1 phase at 2 uM after 24 hrs by propidium iodide staining-based flow cytometric analysis (reference value: 0.72%); format: functional
MCF-10A [20] = assay: Antiproliferative activity against human MCF-10A cells at 2.5 uM after 72 hrs by MTT assay relative to control; format: cell-based
MDA-MB-231 [21] = assay: Induction of apoptosis in human MDA-MB-231 cells assessed as increase in cleaved caspase-9 level incubated for 24 hrs by Western blot analysis; format: functional, cell-based
[22] = molecular target: T1, DNA topoisomerase 1 (Homo sapiens); assay: Poison activity at human recombinant topoisomerase I assessed as accumulation of supercoiled DNA at 10 uM measured after 30 mins by ethidium bromide staining based agarose gel electrophoresis
MDA-MB-231 [23] = assay: Cell cycle arrest in human MDA-MB-231 cells assessed as accumulation at sub-G1 phase at 4 uM after 24 hrs by propidium iodide staining based flow cytometric analysis (reference value: 0.72%); format: functional

Sequence of DNA topoisomerase 2-alpha (Homo sapiens) (P11388 whole entry): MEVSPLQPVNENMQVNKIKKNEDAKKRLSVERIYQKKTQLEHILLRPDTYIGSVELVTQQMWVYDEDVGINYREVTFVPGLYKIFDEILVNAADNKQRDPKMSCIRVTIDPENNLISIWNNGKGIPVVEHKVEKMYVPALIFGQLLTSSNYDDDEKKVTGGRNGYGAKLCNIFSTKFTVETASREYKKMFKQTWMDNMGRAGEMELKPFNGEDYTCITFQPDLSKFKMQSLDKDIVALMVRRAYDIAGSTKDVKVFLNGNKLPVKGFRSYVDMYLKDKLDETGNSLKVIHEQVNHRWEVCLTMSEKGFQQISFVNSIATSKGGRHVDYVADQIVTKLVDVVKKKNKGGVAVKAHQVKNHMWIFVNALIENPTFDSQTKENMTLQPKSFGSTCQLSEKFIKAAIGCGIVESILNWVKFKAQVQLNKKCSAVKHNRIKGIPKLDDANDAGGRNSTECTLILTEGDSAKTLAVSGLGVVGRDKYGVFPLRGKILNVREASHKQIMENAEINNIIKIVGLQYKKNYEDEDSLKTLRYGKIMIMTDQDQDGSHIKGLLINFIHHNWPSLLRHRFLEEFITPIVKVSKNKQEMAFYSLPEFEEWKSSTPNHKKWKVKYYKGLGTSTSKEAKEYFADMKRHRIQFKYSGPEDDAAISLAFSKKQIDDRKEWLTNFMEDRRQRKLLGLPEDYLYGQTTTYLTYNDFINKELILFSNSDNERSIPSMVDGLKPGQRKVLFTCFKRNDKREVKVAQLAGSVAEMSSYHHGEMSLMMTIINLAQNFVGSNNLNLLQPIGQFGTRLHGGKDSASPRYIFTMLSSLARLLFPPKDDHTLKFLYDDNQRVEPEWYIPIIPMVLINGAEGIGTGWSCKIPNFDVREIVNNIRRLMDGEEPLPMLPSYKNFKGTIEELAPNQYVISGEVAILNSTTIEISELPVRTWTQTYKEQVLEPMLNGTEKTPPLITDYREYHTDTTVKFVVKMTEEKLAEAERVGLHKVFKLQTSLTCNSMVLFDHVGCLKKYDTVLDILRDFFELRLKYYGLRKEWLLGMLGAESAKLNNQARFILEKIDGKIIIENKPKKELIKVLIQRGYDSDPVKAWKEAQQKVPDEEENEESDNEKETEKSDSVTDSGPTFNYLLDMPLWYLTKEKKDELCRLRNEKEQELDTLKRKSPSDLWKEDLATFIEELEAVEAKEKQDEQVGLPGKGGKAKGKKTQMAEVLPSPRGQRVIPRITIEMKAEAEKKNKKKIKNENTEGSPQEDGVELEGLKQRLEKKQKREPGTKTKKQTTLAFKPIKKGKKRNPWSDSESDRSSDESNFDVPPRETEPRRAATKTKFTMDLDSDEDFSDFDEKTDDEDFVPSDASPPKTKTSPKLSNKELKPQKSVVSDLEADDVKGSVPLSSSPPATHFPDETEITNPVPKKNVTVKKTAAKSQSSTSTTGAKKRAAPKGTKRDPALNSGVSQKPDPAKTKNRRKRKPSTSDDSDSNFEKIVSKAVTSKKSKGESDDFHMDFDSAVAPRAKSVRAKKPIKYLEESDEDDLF

## NCCCNc1nc2ccccc2c2c(=O)c3cc(Cl)ccc3sc12
[1]
  cytotoxicity at 72 h, 10 µM: > 95%
MDA-MB-468
  IC50: 1090 nM
MDA-MB-231 [2]
  IC50: 3.39 µM
[3]
  inhibition of DNA relaxation (active/inactive): Active
NCI-H1299
  IC50: 4.73 µM
[4]
  inhibition: Active
MCF7
  IC50: 4.36 µM
[5]
  inhibition: Active
HCT-116
  IC50: 3.54 µM

## O=c1c2cc(F)ccc2sc2c(NCc3ccccc3)nc3ccccc3c12
[1]
  cytotoxicity at 72 h, 10 µM: 21%

## COc1ccc(CNc2nc3ccccc3c3c(=O)c4cc(Cl)ccc4sc23)cc1
[1]
  cytotoxicity at 72 h, 10 µM: 21%

## CCCNc1nc2ccccc2c2c(=O)c3cccc(Cl)c3sc12
[1]
  cytotoxicity at 72 h, 10 µM: < 20%

## CCCNc1nc2ccccc2c2c(=O)c3c(Cl)cccc3sc12
[1]
  cytotoxicity at 72 h, 10 µM: < 20%

## CCNc1nc2ccccc2c2c(=O)c3cc(C)ccc3sc12
[1]
  cytotoxicity at 72 h, 10 µM: 21%

## NCCCNc1nc2ccccc2c2c(=O)c3cccc(Cl)c3sc12
[1]
  cytotoxicity at 72 h, 10 µM: > 95%
MDA-MB-468
  IC50: 270 nM
MDA-MB-231 [2]
  IC50: 2.19 µM
[6]
  inhibition: 100%
[7]
  inhibition: 100%
[3]
  inhibition of DNA relaxation (active/inactive): Active
MDA-MB-231 [8]
  Activity: 9.8%
NCI-H1299
  IC50: 3.69 µM
[4]
  inhibition: Active
MCF7
  IC50: 4.49 µM
[5]
  inhibition: Active
HCT-116
  IC50: 2.51 µM
MDA-MB-231 [9]
  Activity: 35.7%

## COc1cccc2c(=O)c3c(sc12)c(NCc1ccccc1)nc1ccccc13
[1]
  cytotoxicity at 72 h, 10 µM: 21%

## CCCNc1nc2ccccc2c2c(=O)c3cc(Cl)ccc3sc12
[1]
  cytotoxicity at 72 h, 10 µM: 21%

## CCNc1nc2ccccc2c2c(=O)c3cc(F)cc(Cl)c3sc12
[1]
  cytotoxicity at 72 h, 10 µM: 21%

## CCNc1nc2ccccc2c2c(=O)c3cccc(OC)c3sc12
[1]
  cytotoxicity at 72 h, 10 µM: 21%

## COc1ccc2sc3c(NCCCN)nc4ccccc4c3c(=O)c2c1
[1]
  cytotoxicity at 72 h, 10 µM: > 95%
MDA-MB-468
  IC50: 3040 nM
MDA-MB-231 [2]
  IC50: 4.5 µM
[7]
  inhibition: 100%
[3]
  inhibition of DNA relaxation (active/inactive): Active
NCI-H1299
  IC50: > 5 µM
[4]
  inhibition: Active
MCF7
  IC50: > 5 µM
[5]
  inhibition: Active
HCT-116
  IC50: > 5 µM

## CCCNc1nc2ccccc2c2c(=O)c3cc(F)ccc3sc12
[1]
  cytotoxicity at 72 h, 10 µM: 21%

## Cc1ccc2sc3c(NCCCN)nc4ccccc4c3c(=O)c2c1
[1]
  cytotoxicity at 72 h, 10 µM: > 95%
MDA-MB-468
  IC50: 2890 nM
MDA-MB-231 [2]
  IC50: 3.69 µM
[7]
  inhibition: 100%
[3]
  inhibition of DNA relaxation (active/inactive): Active
NCI-H1299
  IC50: > 5 µM
[4]
  inhibition: Active
MCF7
  IC50: > 5 µM
[5]
  inhibition: Active
HCT-116
  IC50: 4.22 µM

## CCNc1nc2ccccc2c2c(=O)c3cccc(F)c3sc12
[1]
  cytotoxicity at 72 h, 10 µM: < 20%

## Cc1ccc2sc3c(NCc4ccccc4)nc4ccccc4c3c(=O)c2c1
[1]
  cytotoxicity at 72 h, 10 µM: 21%

## O=C(Nc1nc2ccccc2c2c(=O)c3cc(Cl)ccc3sc12)c1ccccn1
[1]
  cytotoxicity at 72 h, 10 µM: < 20%

## O=c1c2cc(F)ccc2sc2c(NCc3cccnc3)nc3ccccc3c12
[1]
  cytotoxicity at 72 h, 10 µM: 21%

## NCCCNc1nc2ccccc2c2c(=O)c3cc(F)ccc3sc12
[1]
  cytotoxicity at 72 h, 10 µM: > 95%
MDA-MB-468
  IC50: 1240 nM
MDA-MB-231 [2]
  IC50: 2.9 µM
[7]
  inhibition: 100%
[3]
  inhibition of DNA relaxation (active/inactive): Active
NCI-H1299
  IC50: 3.02 µM
[4]
  inhibition: Active
MCF7
  IC50: 3.98 µM
[5]
  inhibition: Active
HCT-116
  IC50: 3.05 µM

## NCCNc1nc2ccccc2c2c(=O)c3cc(F)cc(Cl)c3sc12
[10]
  Activity: Active
[11]
  Activity: Active
[1]
  cytotoxicity at 72 h, 10 µM: > 95%
MCF-10A [12]
  Activity: 1.6%
MDA-MB-468
  IC50: 220 nM
MDA-MB-231 [13]
  Activity: Active
MDA-MB-231 [2]
  IC50: 1.14 µM
[6]
  inhibition: 100%
[7]
  inhibition: 100%
MDA-MB-231 [14]
  Activity: Active
[3]
  inhibition of DNA relaxation (active/inactive): Active
MDA-MB-231 [15]
  Activity: Active
NCI-H1299
  IC50: 0.53 µM
[16]
  Activity: Active
[4]
  inhibition: Active
MDA-MB-231 [17]
  Activity: Active
MCF7
  IC50: 0.8 µM
MDA-MB-231 [18]
  Activity: 70.2%
[5]
  inhibition: Active
HCT-116
  IC50: 0.53 µM
MDA-MB-231 [19]
  Activity: 3.6%
MCF-10A [20]
  Activity: Non-Toxic
MDA-MB-231 [21]
  Activity: Active
[22]
  Activity: Active
MDA-MB-231 [23]
  Activity: 39.4%

## CCCNc1nc2ccccc2c2c(=O)c3ccc(Cl)cc3sc12
[1]
  cytotoxicity at 72 h, 10 µM: < 20%

## CCCNc1nc2ccccc2c2c(=O)c3cc(OC)ccc3sc12
[1]
  cytotoxicity at 72 h, 10 µM: < 20%
[7]
  Activity: Active

## O=c1c2cccc(F)c2sc2c(NCc3ccccc3)nc3ccccc3c12
[1]
  cytotoxicity at 72 h, 10 µM: < 20%
